Measurements reported in patent US5702923A, “Method of making a lactococcal bacteriocin” (Quest International Flavors & Food Ingredients Company, a …, priority 1992, dated 1997).

Experiments:
L. monocytogenes 69 = assay: Inhibition of Listeria, LL-1 compared with nisin; assay type: cell-based, Listeria monocytogenes; set-up: key: + = Inhibition; - = No inhibition; conditions: 370 IU/ml, nisin purified from the broth
Source text: This is shown by the following data in Table 5.

strain NRRL-B-18535 = assay: Sensitivity of the producer strain to nisin; assay type: cell-based, Lactococcus lactis
Source text: Inhibitory spectrum of LL-1. The plate assay system was used to evaluate the spectrum of bacteriocin activity. […] Strains of Streptococcus mutans, S. sanguis, S. faecalis and Listeria monocytogenes were not sensitive in this test. The strain NRRL-B-18535 was resistant to nisin.

Listeria monocytogenes = assay: Spot assay of filter sterilized supernatant (LL-1 broth) on indicator lawn; assay type: cell-based; conditions: as crude filter sterilized broth or dried powder from the broth, not purified
Procedure: To produce the bacteriocin, 500 ml of MRS broth (Difco) was inoculated at 1% with an 8 hour old culture of LLA 1.0 grown in MRS broth (Difco, Detroit, Mich.) and was incubated statically at 32° C. for 24 hours. After 24 hours the cells were removed by centrifugation at 16,000×g for 20 minutes at 4° C. The supernatant was filtered through a 0.22 micron (pore size) filter (Millipore Corp. Bedford, Mass.). The supernatant was assayed for bacteriocin activity by spotting 5 microliters of this supernatant material onto various media overlaid with soft agar seeded with different indicator cells. These assay plates were incubated at 35° C. or 32° C., respectively. After 24 hours the plates were examined, clear zones associated with the spot were recorded as positive (growth inhibition) and negative (no growth inhibition).

## nisin
L. monocytogenes 69
  Inhibition of L. monocytogenes 69: -
Strain NRRL-B-18535
  sensitivity of strain NRRL-B-18535 to nisin: resistant
Listeria monocytogenes
  activity against Listeria monocytogenes, in words: not effective
